Laboratory results as given in US6300337A, “Acetamide derivative and use thereof” (Nippon Kayaku Kabushiki Kaisha, priority 1998, dated 2001).

Target: T1, human chymase (Homo sapiens, UniProt P23946)
T1 construct: 60 g human tonsillar gland was finely divided by scissors and a scalpel; from tissue; host or cells: human tonsillar gland
T1 sequence (P23946 22-247): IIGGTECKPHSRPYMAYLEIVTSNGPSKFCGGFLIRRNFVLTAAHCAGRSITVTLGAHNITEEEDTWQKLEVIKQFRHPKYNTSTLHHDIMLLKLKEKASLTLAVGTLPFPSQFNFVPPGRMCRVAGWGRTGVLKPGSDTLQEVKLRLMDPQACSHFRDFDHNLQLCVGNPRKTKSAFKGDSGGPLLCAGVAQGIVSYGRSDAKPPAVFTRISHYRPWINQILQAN
Assay: inhibitory activity on human chymase (angiotensin I as substrate, angiotensin II determined by HPLC)
Assay type: biochemical
Details: for inhibitory activity on chymase (in words): chymase species not given; for IC50: first table, pH 8.0, 37° C., 15 min, read-out: 50% Inhibitory concentration (IC50) human chymase
Excerpt: It is known that chymase is present in tissues of various animals, and its isolation and purification methods are described in Anal. Biochem., 137, 449 (1984) and FEBS Letters, 323, 119 (1993). In the present invention, chymase was purified by the methods described in these literatures, and the present compounds were examined for inhibitory activity on human chymase or dog chymase. The specific methods are as follows:
60 g human tonsillar gland was finely divided by scissors and a scalpel, suspended in 0.1 M phosphate buffer (pH 8.0), and disrupted by a Polytron homogenizer for 5 minutes to prepare a crude chymase enzyme solution. The solution was centrifuged at 22000×g for 30 min, and the precipitate was used as a chymase enzyme fraction. The precipitate was washed by repeating the above procedure twice, and then suspended in 0.1 M phosphate buffer (pH 8.0) containing 2 M sodium chloride and 5% ammonium sulfate. The suspension was centrifuged at 27000×g for 20 min to give a supernatant as a chymase fraction. The supernatant was concentrated by ultrafiltration, applied to a G2000SW-XL column (6.0×300 mm), and eluted with 0.1 M phosphate buffer (pH 8.0). An active fraction decomposing succinyl leucyl leucyl valyl tyrosyl methylcoumarylamide (hereinafter referred to as the synthetic chymase substrate, made by Peptide Kenkyusho) was recovered, concentrated and used as a purified human chymase for the following activity measurement.
The inhibitory activity on the human chymase and dog chymase was measured using angiotensin I (made by Peptide Kenkyusho) for a substrate. 200 μl of 0.15 M Tris-HCl buffer (pH 8.0) containing 0.1 mM angiotensin I, 0.0002 μl of human or dog chymase solution and 2 μl of a dimethylsulfoxide solution of the present compound were added into a 1.5 ml test tube and incubated at 37° C. for 15 min. At the end of the reaction, produced angiotensin II was immediately determined by high performance liquid chromatography […] the chymase activity to calculate 50% inhibitory concentration (IC50: nM).
The test was conducted several times. Chymase was prepared for each test in the manner described above. The compounds prepared in the above-described Examples were used for the test.

inhibitory activity on chymase (in words)	IC50 [nM]	Compound
powerful inhibitory activity on chymase	26	CC(=O)OCc1cnc(-c2ccccc2)n(CC(=O)NC(Cc2ccccc2)C(=O)C(=O)CCCOc2ccccn2)c1=O (stereo not shown) [Compound 1, 2-(5-acetyloxymethyl-4-oxo-2-phenyl-3,4-dihydro-pyrimidin-3-yl)-N-{2,3-dioxo-1-phenylmethyl-6-(2-pyridyloxy)}hexylacetamide]
powerful inhibitory activity on chymase	27	O=C(Cn1c(-c2ccccc2)ncc(CO)c1=O)NC(Cc1ccccc1)C(=O)C(=O)CCCOc1ccccn1 (stereo not shown) [Compound 2, 2-(5-hydroxymethyl-4-oxo-2-phenyl-3,4-dihydropyrimidin-3-yl)-N-{2,3-dioxo-1-phenylmethyl-6-(2-pyridyloxy)} hexylacetamide]
powerful inhibitory activity on chymase	22	COCc1cnc(-c2ccccc2)n(CC(=O)NC(Cc2ccccc2)C(=O)C(=O)CCCOc2ccccn2)c1=O (stereo not shown) [Compound 3, 2-(5-methoxymethyl-4-oxo-2-phenyl-3,4-dihydropyrimidin-3-yl)-N-{2,3-dioxo-1-phenylmethyl-6-(2-pyridyloxy)} hexylacetamide]
–	490	CCOC(=O)c1cnc(-c2ccccc2)n(CC(=O)NC(Cc2ccccc2)C(=O)C(=O)CCCOc2ccccn2)c1=O (stereo not shown) [Compound 4, 2-(5-ethoxycarbonyl-4-oxo-2-phenyl-3,4-dihydro-pyrimidin-3-yl)-N-{2,3-dioxo-1-phenylmethyl-6-(2-pyridyl-oxy)}hexylacetamide]
